{"source": "patent US10358464B2", "about": "“Specific binding sites in collagen for integrins and use thereof” (The Texas A&M University System, priority 2005, dated 2019)", "key": {"[1]": {"target": "T1, α1I binding to type III collagen (Homo sapiens, UniProt P56199)", "T1 construct": "recombinant I domains from integrins α1 and α2 (α1I and α2I); made in house", "T1 sequence (P56199 161-360 limits assumed)": "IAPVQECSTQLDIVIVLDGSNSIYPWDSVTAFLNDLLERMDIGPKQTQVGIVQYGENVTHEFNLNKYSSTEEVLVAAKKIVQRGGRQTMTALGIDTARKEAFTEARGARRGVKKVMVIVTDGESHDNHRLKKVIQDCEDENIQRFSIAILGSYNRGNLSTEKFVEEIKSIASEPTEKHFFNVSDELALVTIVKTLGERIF", "assay": "Competition ELISA, inhibition of I domain binding to type III collagen", "conditions": "100 μM peptide, 0.5 μM α1I, type III procollagen-coated wells"}, "[2]": {"target": "T2, α2I binding to type III collagen (Homo sapiens, UniProt P17301)", "T2 construct": "recombinant I domains from integrins α1 and α2 (α1I and α2I); made in house", "T2 sequence (P17301 188-365 limits assumed)": "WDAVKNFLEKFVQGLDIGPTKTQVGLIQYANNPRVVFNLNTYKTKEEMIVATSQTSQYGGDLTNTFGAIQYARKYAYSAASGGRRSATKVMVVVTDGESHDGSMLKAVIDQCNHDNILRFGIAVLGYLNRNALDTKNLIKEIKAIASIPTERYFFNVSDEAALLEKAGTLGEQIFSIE", "assay": "Competition ELISA, inhibition of I domain binding to type III collagen", "conditions": "100 μM peptide, 5 μM α2I, type III procollagen-coated wells"}, "MRC-5 cells": {"system": "MRC-5 cells", "assay": "Cell attachment assay on coated substrates", "assay_type": "cell-based, human", "conditions": "room temperature", "protocol": "Reagents and Cell Culture. The human recombinant mature type III collagen used for cell attachment assays was purchased from FibroGen. All cell culture media components were purchased from Invitrogen. The human lung fibroblast cell line MRC-5 was purchased from American Type Culture Collection (ATCC) (Manassas, Va.). The cells were cultured and passaged in Dulbecco's modified Eagle's medium (DMEM) supplemented with 10% fetal bovine serum, 100 unit/ml penicillin and 100 μg/ml streptomycin. The cells were grown to subconfluence and passaged every 2-3 days.\nCell attachment assay. MRC-5 cells were starved overnight in serum deficient DMEM containing penicillin and streptomycin, then detached using 1 mM EDTA and 0.025% trypsin at 37° C. for 2 minutes. The cells were washed with PBS and resuspended in DMEM containing 0.2% BSA supplemented with 2 mM MgCl2. 100 μl of the cell suspension (˜1.5×10^5 cells/ml) were added to the microtiter wells coated with different concentrations of collagen or collagen peptides and blocked with PBS containing 0.5% (w/v) BSA. After incubation at room temperature for 45 min, the wells were washed with PBS. Attached cells were fixed with 3% p-formaldehyde for 10 min at room temperature. Following washing with cold Tris-buffered saline (TBS), pH 7.4, cells were fixed again in 20% methanol for 10 min and stained with 0.5% crystal violet for 5 min. The wells were thoroughly washed with distilled water and air-dried. Sodium citrate (0.1 M) was then added to the wells to dissolve the dye and the absorbance at 590 nm was measured. The maximum cell attachment on type III collagen was set to 100% and, residual attachment on BSA was set to 0%.\nAdhesion of MRC-5 cells to peptide#1 (SEQ ID NO: 15) substrates. […] Wells in 96-well plates were coated with increasing concentrations of type III collagen, peptide #1 (SEQ ID NO: 15) or #2 (SEQ ID NO: 16) and 1.5×10^4 MRC-5 cells were added to each well. The plate was incubated for 45 min at room temperature and adhering cells were quantified as described herein."}, "[3]": {"assay": "CD temperature-dependent denaturation of triple helix", "assay_type": "physicochemical", "conditions": "CD ellipticity at 225 nm, 20° C./hr, Boltzmann sigmoidal fit", "protocol": "Circular Dichroism (CD) Spectroscopy. Synthetic collagen peptides were analyzed by CD spectroscopy, as described previously (18) with the following modifications. Briefly, peptides were dissolved in HBS to a concentration of 50 μM. CD spectra were collected on a Jasco J720 spectropolarimeter (Tokyo, Japan) from 190 to 240 nm, with bandwidth of 1 nm and integrated for 1 s at 0.2 nm intervals. Samples were measured at room temperature using cuvettes with 0.02 cm path length. For temperature-dependent denaturation analysis, […] of peptides were added to a thermostatically controlled cuvette with a 0.5 cm path length. Thermal transition profiles were recorded at 225 nm as described above with a temperature slope of 20° C./hr. To calculate the temperature melting points, the thermal transition profiles were fitted with Boltzmann sigmoidal model using the GraphPad Prism™ software (GraphPad Software Inc., San Diego, Calif.)."}, "α1I": {"target": "α1I (Homo sapiens, UniProt P56199)", "sequence (P56199 161-360 limits assumed)": "as the sequence (P56199 161-360 limits assumed) above", "assay": "SPR, I domain binding to immobilized synthetic collagen peptide"}, "α2I": {"target": "α2I (Homo sapiens, UniProt P17301)", "sequence (P17301 188-365 limits assumed)": "as the sequence (P17301 188-365 limits assumed) above", "assay": "SPR, I domain binding to immobilized synthetic collagen peptide"}, "[4]": {"conditions": "30 nM I domain, 2 mM EDTA versus 1 mM MgCl2"}}, "note": "Non-standard residues stand in square brackets, D forms with d. Residues, ends and D or L forms follow the SMILES beside them. Hyp = O=C(O)[C@@H]1C[C@@H](O)CN1", "data": [{"smiles": "CC(C)C[C@H](NC(=O)CNC(=O)[C@H](CCCNC(=N)N)NC(=O)[C@H](CCC(=O)O)NC(=O)CNC(=O)[C@@H]1C[C@@H](O)CN1C(=O)[C@H](CCCNC(=N)N)NC(=O)CNC(=O)[C@@H]1C[C@@H](O)CN1C(=O)[C@H](CCCNC(=N)N)NC(=O)CNC(=O)[C@@H]1C[C@@H](O)CN1C(=O)[C@@H]1CCCN1C(=O)CNC(=O)[C@@H]1C[C@@H](O)CN1C(=O)[C@@H]1CCCN1C(=O)CNC(=O)[C@@H]1C[C@@H](O)CN1C(=O)[C@@H]1CCCN1C(=O)CN)C(=O)N1C[C@H](O)C[C@H]1C(=O)NCC(=O)N1CCC[C@H]1C(=O)N1C[C@H](O)C[C@H]1C(=O)NCC(=O)N1CCC[C@H]1C(=O)N1C[C@H](O)C[C@H]1C(=O)NCC(=O)N1CCC[C@H]1C(=O)N1C[C@H](O)C[C@H]1C(N)=O", "note": "[peptide #1, (GPO)3GROGROGERGLO(GPO)3] (H-GP[Hyp]GP[Hyp]GP[Hyp]GR[Hyp]GR[Hyp]GERGL[Hyp]GP[Hyp]GP[Hyp]GP[Hyp]-NH2; N-terminus and C-terminus assumed)", "values": [{"measurement": "inhibition at 100 µM", "setting": "[1]", "value": 100, "unit": "%"}, {"measurement": "inhibition at 100 µM", "setting": "[2]", "value": 80, "unit": "%"}, {"measurement": "adhesion of MRC-5 cells to coated substrate", "setting": "MRC-5 cells; increasing coating concentrations, 1.5×10^4 cells per well, 45 min", "value": "could support adhesion of MRC-5 cells in a dose-dependent manner"}, {"measurement": "cell spreading on coated substrate", "setting": "MRC-5 cells; 1.5 hrs (data not shown)", "value": "Considerable cell spreading"}, {"measurement": "melting temperature (Tm) of triple helix", "setting": "[3]", "value": 43, "unit": "°C"}, {"measurement": "Kd", "setting": "α1I", "value": 23, "unit": "nM"}, {"measurement": "koff", "setting": "α1I", "value": 0.0013, "unit": "s⁻¹"}, {"measurement": "kon", "setting": "α1I", "value": 56000, "unit": "M⁻¹ s⁻¹"}, {"measurement": "binding in the presence of EDTA", "setting": "α1I; [4]", "value": "completely abolished binding"}, {"measurement": "dissociate rate", "setting": "α1I; 15° C., 1:1 binding model", "value": 1.3, "unit": "s^−1×10^3"}, {"measurement": "Kd", "setting": "α2I", "value": 283, "unit": "nM"}, {"measurement": "koff", "setting": "α2I", "value": 0.012, "unit": "s⁻¹"}, {"measurement": "kon", "setting": "α2I", "value": 44000, "unit": "M⁻¹ s⁻¹"}, {"measurement": "binding in the presence of EDTA", "setting": "α2I; [4]", "value": "completely abolished binding"}, {"measurement": "dissociate rate", "setting": "α2I; 15° C., 1:1 binding model", "value": 12, "unit": "s^−1×10^3"}]}]}
